This note sets out measurements from ChEMBL document CHEMBL1155684, “Preparation, stereochemistry, and cytotoxic activity of the melampolides from Mikania minima” (J Nat Prod, 2000).

Common to all, as to assay type: functional, cell-based
In one assay the test system is P388. Nature of the assay: Cytotoxicity against mouse P388 cells.
Another assay relates to A549. Put plainly: Cytotoxicity against human A549 cells.
The subject of the next assay is HT-29. Nature of the assay: Cytotoxicity against human HT29 cells.

Take `C=C1C(=O)O[C@@H]2/C=C(\COC(C)=O)CC/C=C(/C=O)C[C@H](OC(C)=O)[C@@H]12`: the IC50 with P388 was determined as 1400 nM; in the assay on A549, 2800 nM; with HT-29 it was 2800 nM.
Consider `C=C1C(=O)O[C@@H]2/C=C(\COC(C)=O)CC/C=C(/CO)C[C@H](OC(C)=O)[C@@H]12`, for which the concentration for half-maximal inhibition (IC50) in the assay with P388 was determined as 2700 nM; in the assay on A549, 5500 nM.

Usually IC50 stands for the midpoint of a concentration-inhibition curve.
